Laboratory results published in patent US20180280450A1, “METHOD OF PROMOTING IMMUNE HEALTH USING THE WATER-SOLUBLE COMPONENT FROM GENUS EUGLENA ORGANISM” (KEMIN INDUSTRIES, INC., priority 2017, published 2018).

Assays:
human immune cells = assay: In vitro bioassay screening of Test Products in cell cultures of human immune cells (overall summary); type: cell-based; details: sample preparation after 0.2 micron filtration
Experimental: Bioassay screening of nutraceutical ingredients and one blend were performed to evaluate their potency and mechanisms of action. The screening involved testing in cell cultures involving human immune cells. As part of this process, selected immune ingredients currently on the market were compared for similarities and differences of mechanisms of action, as well as efficacy (active dose comparison). Eight Test Products labeled Test Products A-H, as noted in the various tables and explained below were employed in this study.
The water-soluble Test Products were prepared by taking 0.25 grams of powder into 5 mL of physiological saline. The suspension was incubated under gentle agitation for one hour, after which any remaining solids were removed by centrifugation. Insoluble, particulate Test Products were prepared by taking 0.5 grams of powder into 3 mL of physiological saline. One (1) mL ceramic beads (200 uM zirconium) were added, and bead milling performed by 10 cycles of repeated 60-second pulsing (vortex high speed, 60 one (1) second pulses) with placement of samples in an ice-bath between cycles. Subsequently, seven (7) mL of physiological saline was then added to bring the samples to a 50 mg/mL final concentration. […]

Solubility in water = type: physicochemical
[1] = tested on: CD69/CD25 double positive lymphocytes; assay: CD69/CD25 double positive lymphocytes by flow cytometry in PBMC cultures; type: cell-based, human; details: 24-hour PBMC cultures, dose not specified
Experimental: (§1) Human peripheral blood mononuclear cell (PBMC) cultures were used for this testing. A set of cultures was left untreated as negative control cultures for immune activation. Triplicate sets of cultures were treated with serial dilutions of the test product. The inflammatory bacterial lipopolysaccharide LPS from E. coli was used as a positive control for activation. The cultures were incubated for 24 hours, after which the cells and the culture supernatants were harvested and used to monitor the reactions in each culture. […]
(§2) The cells were stained with a combination of monoclonal antibodies to monitor activation status, and analyzed by multi-parameter flow cytometry, using an acoustic dual-laser Attune® flow cytometer. […]
(§3) Immune cell activation was analyzed after the cell viability testing. […] The cells were stained with a combination of monoclonal antibodies to monitor activation, and analyzed by multi-parameter flow cytometry, using an acoustic dual laser Attune® flow cytometer. […]
(§4) The cellular staining for activation, performed using a fluorescently labelled monoclonal antibody to the CD69 and CD25 activation markers, allowed researchers to measure cellular activation by fluorescence intensity. […]

non-T non-NK lymphocytes = assay: Immune cell activation by flow cytometry (CD69/CD25) on non-T non-NK lymphocytes in PBMC cultures; type: cell-based, human; details: 24-hour PBMC cultures
Experimental: as §1, §2, §3, §4

monocytes = assay: Immune cell activation by flow cytometry (CD69) on monocytes in PBMC cultures; type: cell-based, human; details: dose not specified
Experimental: as §1, §2, §3, §4

T-cells = assay: Immune cell activation by flow cytometry (CD69/CD25) on T-cells in PBMC cultures; type: cell-based, human; details: 24-hour PBMC cultures
Experimental: as §1, §2, §3, §4

For paramylon [Test Product D], the “activity in the in vitro screen (overall)” value (human immune cells) was “essentially no activity”, the “activity in the in vitro screen (overall)” value (human immune cells; listed as Sample D) was “essentially inactive” and the solubility in water (Solubility in water) was “completely insoluble”. For the same substance, the “number of CD69/CD25 double-positive lymphocytes” value [1] was “only exerted minor, if any, effects”, the “CD69 expression on non-T non-NK cells” value (non-T non-NK lymphocytes; dose not specified (FIG. 19)) was “only exerted minor, if any, effects” and the “CD25 expression on non-T non-NK cells” value (non-T non-NK lymphocytes; FIG. 21 shows CD25) was “only exerted minor, if any, effects”. The “CD69 expression on monocytes” value (monocytes) was “only exerted minor, if any, effects”, the “CD25 expression on T-cells” value (T-cells; at lower doses) was “varying degrees of suppressing CD25 expression” and the “CD69 expression on T-cells” value (T-cells; figures show T-cells) was “only exerted minor effects”.
